# Source: US20050215517A1, “Use of an anti-endotoxin drug in the prevention and treatment of disease” (priority 1999, published 2005)
# Experiments:
# LPS endotoxin = experiment: Pharmacodynamic analysis of E5564 in vivo: LPS challenge in dogs, plasma TNF-α by bioassay; parameters: species or system beagle dogs; settings: for TNF-α at 1 hour / TNF-α at 2 hours: plasma; for TNF-α at 1 hour: 1 h after LPS 300 ng/kg i.v.; for TNF-α at 2 hours: 2 h after LPS 300 ng/kg i.v.
# Method: FIG. 1 is a graph showing the anti-endotoxin activity of E5564 after a single bolus injection. LPS endotoxin (300 ng/kg) was injected intravenously into untreated dogs (∘) or simultaneously with 0.1 mg/kg E5564 (Δ) one hour after E5564 administration (□) or three hours after E5564 administration (●). Blood was drawn and analyzed for TNF-α concentration by bioassay, as is described in the Materials and Methods section, below. Each value represents the mean±S.E.M. of four animals.
# In general, the candidate antagonist is administered to a test species of animal, and an appropriate dose of endotoxin (lipopolysaccharide (LPS)) is administered to test the ability of the candidate antagonist to block the effects of endotoxin. Some of the experiments described below use an in vivo challenge of LPS given intravenously both during and after intravenous infusion of E5564. Activity of an antagonist can also be assayed ex vivo by removing blood samples from animals treated with the candidate antagonist and testing that blood to determine if the drug is active and/or present in sufficient quantities to inhibit cellular activation by LPS. In both assays, activity of the antagonist is quantitated by analysis of the cytokines induced by LPS administration. In addition, other physiological symptoms of endotoxin poisoning can be used as readouts of activity. Studies described herein use TNF-α and/or IL-6 as readouts of cellular activation, but a variety of other cytokines and cellular mediators can also be used for this purpose.
# As is shown in FIG. 1 and Table 1, delivery of 300 ng/kg of LPS into beagle dogs (“control” in FIG. 1) elicits a strong, reproducible response, as measured by levels of plasma TNF-α. […] This short activity lifetime (i.e., pharmacodynamic half-life) is an unexpected result, as the pharmacokinetic half-life of E5564 is extremely long in comparison (see below). Thus, while the unmodified (unmetabolized) drug appears to remain in circulation for a relatively long period of time, it loses activity. Because of this unexpected discovery, we have chosen to administer E5564 by infusion.
# E5564 was synthesized by Eisai Research Institute of Boston, Andover, Mass., U.S.A. E5564 drug product was manufactured at the Eisai Preclinical Laboratory (Tsukuba, Japan) by dissolving 35.4 mg of drug substance in 52.1 ml 0.01 N NaOH, stirring for one hour at room temperature, and diluting into phosphate-buffered lactose. After adjusting the pH to 7.3 and diluting to a final concentration of 0.1 mg/ml E5564, the solution was filter-sterilized and lyophilized.
# Escherichia coli LPS (Serotype 0111:B4; phenol extracted, Cat. # L-2630) was purchased from Sigma Chemical Co. Ltd., St. Louis, Mo., U.S.A. Lyophylized E5564 was solubilized in 5 ml of sterile water (Otsuka Pharm. Co. Ltd., Tokyo, Japan). LPS was weighed to an accuracy of 1/10 mg and solubilized in 5% glucose (Otsuka Pharm. Co. Ltd., Tokyo, Japan). The LPS solution was sonicated with a bath-type sonicator for 15 minutes after which aliquots were immediately prepared and stored at −20° C. Prior to use, the solution was sonicated for one or two minutes, and then dilutions were prepared in 5% glucose.
# Nine month-old beagles were obtained from Kawashima-shoji Co. Ltd., Gifu, Japan) and housed in stainless steel wire cages (W 800 mm×D 680 mm×H 680 mm; one dog per cage) in a room with a constant temperature of 20-24° C., humidity of 45-65%, and 12 hour light-dark cycle. The animals were provided with pellet food (DS, Oriental Yeast Co., Tokyo, Japan) and water ad libitum. LPS endotoxin (300 ng/0.1 ml/kg) was injected into the vein of the right foreleg at a rate of 1-2 ml/minute, and E5564 was injected into the vein of the left foreleg at a rate of 10-20 ml/minute.
# Immediately before or 1, 2, or 4 hours after intravenous injection of LPS and E5564, 1.5 ml of blood was drawn from the left cephalic vein. […]
# [1] = Plasma pharmacokinetics of E5564 after 72 hours intravenous infusion; format: in vivo, beagle dogs; settings: 72 h i.v. infusion; for T½: after end of infusion
# Method: FIG. 4 is a graph showing the plasma levels of E5564 during and after 72 hours of intravenous infusion. […] At the indicated times, blood was drawn and analyzed for E5564 concentration by extraction and analysis by HPLC. Each value represents the mean±S.E.M. of three animals. No drug was detectable in samples drawn prior to dosing.
# (§1) This long-term presence of unmodified E5564 in blood initially led us to believe that active drug was likely present for very long periods of time after cessation of drug administration.
# [2] = Plasma pharmacokinetics of E5564 after single bolus intravenous injection; format: in vivo, dogs; settings: single bolus i.v.
# Method: FIG. 3 is a graph showing the plasma levels of E5564 after a single bolus injection. After bolus administration of 0.1 mg/kg E5564 (∘), 0.3 mg/kg E5564 (□), and 1 mg/kg E5564 (▪), blood was drawn and analyzed for E5564 concentration by extraction and analysis by HPLC. Each value represents the mean±S.E.M. of three animals. No drug was detectable in samples drawn prior to dosing.
# as §1
# [3] = 0.1 mg/kg E5564 bolus one hour before LPS
# [4] = 0.1 mg/kg E5564 bolus three hours before LPS
compound,measurement,setting,value
"CCCCCC/C=C\CCCCCCCCCC(=O)N[C@H]1[C@H](OC[C@H]2O[C@H](OP(=O)(O)O)[C@H](NC(=O)CC(=O)CCCCCCCCCCC)[C@@H](OCCCCCCCCCC)[C@@H]2O)O[C@H](COC)[C@@H](OP(=O)(O)O)[C@@H]1OCC[C@@H](CCCCCCC)OC [E5564, α-D-Glucopyranose, 3-O-decyl-2-deoxy-6-O-[2-deoxy-3-O-[(3R)-3-methoxydecyl)-6-O-methyl-2-[[(11Z)-1-oxo-11-octadecenyl)amino]-4-O-phosphono-β-D-glucopyranosyl]-2-[(1,3-dioxotetradecyl)amino]-,1-(dihydrogen phosphate)]",Blocking of LPS challenge (plasma TNF-α),LPS endotoxin; 0.1 mg/kg E5564 given at the same time as LPS 300 ng/kg,completely effective
same,Response to LPS (% of control),LPS endotoxin; E5564 one hour before LPS,0 % of control
same,Sum of TNF-α (AUC),LPS endotoxin; E5564 one hour before LPS,0 units/ml
same,Inhibition of LPS response,LPS endotoxin; E5564 simultaneously with LPS,100
same,Response to LPS (% of control),LPS endotoxin; E5564 simultaneously with LPS,0 % of control
same,Response to LPS (% of control),LPS endotoxin; E5564 three hours before LPS,52 % of control
same,Activity of the endotoxin antagonist remaining,LPS endotoxin; LPS administered three hours after 0.1 mg/kg E5564,about 48 % of its original activity
same,TNF-α at 1 hour,LPS endotoxin; [3],0 units/ml
same,TNF-α at 1 hour,"LPS endotoxin; 0.1 mg/kg E5564 bolus simultaneously with LPS, four dogs",0 units/ml
same,TNF-α at 1 hour,LPS endotoxin; [4],1353 ± 340 units/ml
same,TNF-α at 2 hours,LPS endotoxin; [3],0 units/ml
same,TNF-α at 2 hours,LPS endotoxin; 0.1 mg/kg E5564 bolus simultaneously with LPS,0 units/ml
same,TNF-α at 2 hours,LPS endotoxin; [4],190 ± 113 units/ml
same,AUC0-144 hours,"[1]; dose 0.1 mg/kg, female",790 ± 51 µg·h/mL
same,C72 hours,"[1]; dose 0.1 mg/kg, female",10350 ± 930 ng/mL
same,AUC0-144 hours,"[1]; dose 0.1 mg/kg, male",1069 ± 139 µg·h/mL
same,C72 hours,"[1]; dose 0.1 mg/kg, male",13070 ± 1220 ng/mL
same,AUC0-144 hours,"[1]; dose 0.3 mg/kg, female",2616 ± 737 µg·h/mL
same,C72 hours,"[1]; dose 0.3 mg/kg, female",32400 ± 5720 ng/mL
same,AUC0-144 hours,"[1]; dose 0.3 mg/kg, male",3309 ± 485 µg·h/mL
same,C72 hours,"[1]; dose 0.3 mg/kg, male",41290 ± 7180 ng/mL
same,AUC0-144 hours,"[1]; dose 1 mg/kg, female",29642 ± 1514 µg·h/mL
same,C72 hours,"[1]; dose 1 mg/kg, female",393900 ± 14200 ng/mL
same,AUC0-144 hours,"[1]; dose 1 mg/kg, male",27114 ± 5737 µg·h/mL
same,C72 hours,"[1]; dose 1 mg/kg, male",366000 ± 69300 ng/mL
same,T½,"[1]; dose 0.1 mg/kg, female",40.9 ± 9.5 h
same,T½,"[1]; dose 0.1 mg/kg, male",38.4 ± 4.5 h
same,T½,"[1]; dose 0.3 mg/kg, female",38.0 ± 11.6 h
same,T½,"[1]; dose 0.3 mg/kg, male",39.9 ± 11.2 h
same,T½,"[1]; dose 1 mg/kg, female",32.0 ± 2.8 h
same,T½,"[1]; dose 1 mg/kg, male",35.1 ± 8.7 h
same,AUC,[2]; 0.1 mg/kg dose,71.8255 ± 1.981 µg·h/mL
same,T½,[2]; 0.1 mg/kg dose,41.7 ± 2.7 h
same,AUC,[2]; 0.3 mg/kg,270.8972 µg·h/mL
same,T½,[2]; 0.3 mg/kg,50.4 ± 2.2 h
same,AUC,[2]; 1 mg/kg,743.5446 µg·h/mL
same,T½,[2]; 1 mg/kg,46.4 ± 2.7 h
